Data taken from article PMC5839409, “Targeting intracellular B2 receptors using novel cell-penetrating antagonists to arrest growth and induce apoptosis in human triple-negative breast cancer” (Oncotarget, 2018).
Read-outs that look alike come from different tables or passages of the source. Square brackets hold non-standard residues; d marks the D form. Ends that are not written are not given here. Peptide text beside a SMILES is read from it. Oic = O=C(O)[C@@H]1C[C@@H]2CCCC[C@@H]2N1; Hyp = O=C(O)[C@@H]1C[C@@H](O)CN1; dTic = O=C(O)[C@H]1Cc2ccccc2CN1; 2Thi = N[C@@H](Cc1cccs1)C(=O)O

Key:
MDA-MB-231 cells [1] = assay: MTT cytotoxicity (cell viability) assay; type: cell-based, human; settings: for cytotoxic effect: at a concentration of 100 µM
Experimental: (§1) Cell proliferation assay on MDA-MB-231 cells was determined with colorimetric MTT as we described. Briefly, cells were seeded in a 96 wells plate at 2,000 cells/well in DMEM media supplemented with 10% FBS for 24h at 37°C. Cells were then incubated with and without the B2RAs at the indicated concentrations for the time shown. At the end of treatment period, MTT (0.25 mg/ml) was added to the cells and incubated for 1h30 at 37°C. Thereafter, the cell medium was removed, the formazan product solubilized in acidified isopropanol (100 µl of 1N HCl/anhydrous isopropanol 1:25) and the absorbance determined at 570 nm with an ELISA microplate reader (Spectra Max Plus, Molecular Devices, Sunnyvale, CA). For assessing the cytotoxicity of B2RAs and chemotherapeutic agents (carmustine, doxorubicin, carboplatin, temozolomide and paclitaxel), cells were grown to confluency in multi-well plates and exposed to starving media (DMEM without FBS) for 24h before beginning of the antagonist treatment. Cells were then incubated with MTT and treated exactly as described above. Cell viability was expressed as a percentage of optical density (OD) values obtained upon treatment relative to control.

MDA-MB-231 cells [2] = assay: Anchorage-dependent clonogenic assay; type: cell-based, human; settings: for colony formation (antagonist effect): 1 to 100 µM (FR173657 up to 25 µM), 10-14 days
Experimental: MDA-MB-231 cells were plated at 200 cells/well in a six-well dish in 2 ml DMEM medium containing 10% FBS. […] After 10 to 14 days, colonies were fixed and stained with 0.5% methylene blue in 50% ethanol. Excess of staining solution was removed carefully with tap water and the plates were dried overnight. Colony counting and densitometric analyses (to measure total colony numbers and surface areas) were performed using the Image Pro Plus 5.1 software.

MDA-MB-231 cells [3] = assay: Cellular incorporation of B2RAs by LC-MS/MS; settings: 2.5 µM antagonist, 37°C
Experimental: Permeability of MDA-MB-231 cells to B2RAs was evaluated by either confocal microscopy or LC-MS/MS analyses. […] Mass spectrometry. […] At the end of treatments, cells underwent an acid wash to facilitate the release of surface bound ligands. Cell contents were released from hypotonic lysis using a 40:60 mixture of 15 mM Tris-HCl pH 7.4 / methanol. Cell lysates were next sonicated and subjected to protein precipitation following addition of 0.1% v/v formic acid. Precipitated proteins were removed by centrifugation and supernatants were concentrated using a Speedvac centrifugal evaporator. The sample was subjected to quantification using LC-MS/MS on a triple quadrupole mass spectrometer (Agilent G6410B). A calibration curve made from nine different concentrations of the reference compounds dissolved in suitable HPLC mobile phase solvents, was used to estimate antagonist intracellular content in each sample. The limit of quantification was 75 fmol (1 nM/75 µl).

MDA-MB-231 cells [4] = assay: Drug-drug synergy experiments (MTT, combination index); type: cell-based, human; settings: IC25 ratios, 72h, CalcuSyn
Experimental: Interactions (synergy, additive, antagonistic activities) between CP-B2RAs (FR173657 and NG68) and chemotherapeutic drugs (doxorubicin and paclitaxel) were evaluated using MTT standard assays. Twenty-four hours after seeding, cells were treated with CP-B2RAs, the other testing drug, or in combination. For combination testing, CP-B2RAs or the other testing drugs were added to plate in triplicate wells in ratios of IC25 (IC25A: IC25B), and cells are incubated in drug-treated medium for 72h and cell viability determined by MTT. Synergy was determined by calculating combination index (CI) value with the formula CI = (CA,X / ICx,A) + (CB,X / ICx,B), where CA,X and CB,X are concentrations of drug A and drug B used in combination to achieve x% drug effect. ICx,A and ICx,B are concentrations for single agents to achieve the same effect. A CI of less than, equal to, and more than 1 indicates synergy, additivity, and antagonism, respectively.

MDA-MB-231 cells [5] = assay: MTT proliferation assay; type: cell-based, human; settings: B2R shRNA knockdown MDA-MB-231 cells vs scrambled shRNA
Experimental: as §1

MDA-MB-231 cells [6] = assay: Annexin V/PI apoptosis and beta-galactosidase senescence assays; type: cell-based, human
Experimental: The effect of B2RAs on cellular senescence was assessed using the Senescence β-Galactosidase Staining Kit (Cell Signaling). MDA-MB-231 cells were plated at 500 000 cells/well in 6-well plates, and serum-starved right before the beginning of treatments. Cells were treated with and without the B2RAs at the indicated concentrations for 72 h. At the end of treatment, surviving cells were fixed with 2% formaldehyde, 0.2% glutaraldehyde for 15 min at room temperature. Fixed cells were then washed and stained with fresh senescence-associated β-galactosidase stain solution (sodium phosphate buffer, pH 6.0, containing 1mg of X-gal (5-bromo-4-chloro-3-indolyl-β-d-galactopyranoside)/ml 40 mM citric acid, 5 mM potassium ferrocyanide, 5 mM potassium ferricyanide, 150 mM NaCl, 2 mM MgCl2) at 37°C. Staining was detected by light microscopy. As a positive control for senescence, we serum starved porcine cerebral microvascular endothelial cells (pCMVEC) (kindly provided by S Chemtob) for 48 h.
MDA-MB-231 and COS-1 cells were plated at 500,000/well in 6-well plates containing medium (10% FBS/DMEM), and allowed to adhere for about 18 h. On the next day, cells were serum-starved and then treated with and without the B2RAs at the indicated concentrations for 24 h. To assess induction of apoptosis due to treatment, we used the Annexin-V-FLUOS Staining kit (Roche) according to manufacturer’s specifications. Briefly, at the end of treatments, cells were harvested, rinsed and incubated in 100 µl of Annexin-V-FLUOS labeling solution (containing 2 µl of Annexin-V-Fluos reagent and 1 µl of PI (15 µg/ml)) for 15 min at room temperature. Cells were analyzed on a FACSCanto II flow cytometer (BD Biosciences). Early stage apoptosis was measured using annexin V-Fluos (RocheMolecular Biochemicals) in conjunction with PI (Sigma) to distinguish among early apoptosis and late apoptosis/necrosis. Bar diagram showing the distribution of early, late/necrotic cell populations.

MDA-MB-231 cells [7] = assay: PI staining cell cycle analysis by flow cytometry; type: cell-based, human; settings: 24 h treatment; HOE 140 up to 100 μM
Experimental: MDA-MB-231 were plated at 500,000/plate in 10 cm plates containing medium (10% FBS/DMEM), and allowed to adhere for about 18 h. Thereafter, cells were serum-starved and treated with and without the B2RAs at the indicated concentrations for 24 h. At the end of treatments, cells were harvested, rinsed and fixed with ice cold ethanol 95%, for 2 h at 4°C. Fixed cells were rehydrated with 800 µl PBS for 30 min, and then washed again with PBS to remove all traces of ethanol. Cells were treated with RNase for 30 min prior to staining. PI was added to cell suspension at a concentration of 15 µg/ml and incubated overnight at 4°C. PI staining was assessed by flow cytometry using a FACSCanto II flow cytometer (BD Biosciences).

MDA-MB-231 cells [8] = assay: Western blot of cell cycle, apoptosis and p38 proteins; type: cell-based, human
Experimental: For western blot analysis, appropriate amount of cell lysates or membrane and nuclear fractions (25–50 µg protein) were denatured, resolved on 9–12% SDS–PAGE and electrotransferred onto PVDF membranes. Blots were blocked using 5% nonfat dry milk and probed using appropriate primary antibodies in blocking buffer overnight at 4°C.

[9] = Distribution coefficient n-octanol/PBS pH 7.4, shake flask
Experimental: Equal volumes of octanol and PBS (137 mM NaCl, 2.7 mM KCl, 10 mM Na2HPO4, 2 mM KH2PO4, pH 7.4), were mixed and allowed to equilibrate for 24h. The layers were then separated and stored at 4°C. At testing, the compounds (200 µM) was added to 200 µl of aqueous phase and mixed with an equal volume of octanol by vortexing for 2 min. The octanol/buffer solution was centrifuged for 5 min at 1000 x g. After separation into aqueous and octanol phases, compound content of the aqueous and octanol phases was quantified by RP-HPLC (Agilent1100 series). […] All octanol/buffer distribution studies were performed in duplicate. The octanol/buffer coefficient was calculated as the ratio of octanol layer to the buffer layer.

[10] = Homo sapiens, MDA-MB-231, MTT assay after 72h drug exposure, means ± s.e.m., n = 6 to 8, read-out: IC50 values (cytocidal activity)
[11] = 24h treatment, whole-cell lysates

For `COc1cccc2c1C(=O)c1c(O)c3c(c(O)c1C2=O)C[C@@](O)(C(=O)CO)C[C@@H]3O[C@H]1C[C@H](N)[C@H](O)[C@H](C)O1` [Adriamycin (doxorubicin), doxorubicin], which IC50 (MDA-MB-231 cells [1]; [10]) is on record?
Its IC50 is 2 ± 1 µM.

For `O=NN(CCCl)C(=O)NCCCl` [BCNU (carmustine), carmustine], which IC50 (MDA-MB-231 cells [1]; [10]) is on record?
The IC50 was 62 ± 1 µM.

Which IC50 (MDA-MB-231 cells [1]; MTT assay after 72h drug exposure, means ± s.e.m., n = 6 to 8, read-out: IC50 values (cytocidal activity)) does the source give for `N.N.O=C([O-])C1(C(=O)[O-])CCC1.[Pt+2]` [Carboplatin] here?
Its IC50 is > 100 µM.

And the cytotoxic effect (MDA-MB-231 cells [1])?
The cytotoxic effect was “did not show significant cytotoxic effect”.

For `C[C@H](CCC(=O)N[C@H](CCCNC(=N)N)C(=O)N[C@@H](CCCNC(=N)N)C(=O)N1CCC[C@H]1C(=O)N1C[C@H](O)C[C@H]1C(=O)NCC(=O)N[C@@H](Cc1cccs1)C(=O)N[C@@H](CO)C(=O)N1Cc2ccccc2C[C@@H]1C(=O)N1[C@H](C(=O)N[C@@H](CCCNC(=N)N)C(=O)O)C[C@@H]2CCCC[C@@H]21)[C@H]1CC[C@H]2[C@@H]3[C@H](O)C[C@@H]4C[C@H](O)CC[C@]4(C)[C@H]3C[C@H](O)[C@]12C` [Cholic-HOE 140 (NG134)], which IC50 (MDA-MB-231 cells [1]; 72 h) is on record?
The IC50 was > 100 µM.

And the “colony formation (antagonist effect)” value (MDA-MB-231 cells [2])?
Its value is “concentration-responsive clonal repression”.

What about the Cellular incorporation (MDA-MB-231 cells [3]; 15 min) of the same molecule?
The Cellular incorporation was 13 pmol/10^6 cells.

And the Cellular incorporation (MDA-MB-231 cells [3]; 4 h)?
The Cellular incorporation was 22 pmol/10^6 cells.

With `N=C(N)NCCC[C@H](NC(=O)[C@@H]1C[C@@H]2CCCC[C@@H]2N1C(=O)[C@H]1Cc2ccccc2CN1C(=O)[C@H](CO)NC(=O)[C@H](Cc1cccs1)NC(=O)CNC(=O)[C@@H]1C[C@@H](O)CN1C(=O)[C@@H]1CCCN1C(=O)[C@H](CCCNC(=N)N)NC(=O)[C@@H](CCCNC(=N)N)NC(=O)CNC(=O)CNC(=O)CNC(=O)[C@@H](CCCNC(=N)N)NC(=O)[C@@H](CCCNC(=N)N)NC(=O)[C@@H](CCCNC(=N)N)NC(=O)[C@@H](CCC(N)=O)NC(=O)[C@@H](CCCNC(=N)N)NC(=O)[C@@H](CCCNC(=N)N)NC(=O)[C@@H](CCCCN)NC(=O)[C@@H](CCCCN)NC(=O)[C@@H](CCCNC(=N)N)NC(=O)CN)C(=O)O` [D-Tat-HOE 140 (NG68)] (H-G[dR][dK][dK][dR][dR][dQ][dR][dR][dR]GGG[dR]RP[Hyp]G[2Thi]S[dTic][Oic]R-OH; N-terminus and C-terminus assumed) as the molecule, how does the “colony formation (antagonist effect)” value (MDA-MB-231 cells [2]) read?
The value was “concentration-responsive clonal repression”.

And the “combination index (CI)” value (MDA-MB-231 cells [4]; combination with doxorubicin)?
Its value is “below 1”.

What about the “combination index (CI)” value (MDA-MB-231 cells [4]; combination with paclitaxel) of the same molecule?
The value was ~1.

What about the “cytostatic activity after B2R downregulation” value (MDA-MB-231 cells [5]) of the same molecule?
Its value is “significantly attenuated”.

And the “induction of apoptosis / senescence” value (MDA-MB-231 cells [6]; Annexin V and active caspase-3 positivity 24h, β-galactosidase 72h)?
Its value is “underwent apoptosis, but not senescence”.

What about the cell cycle distribution (MDA-MB-231 cells [7]) of the same molecule?
The cell cycle distribution was “tend to induce G0/G1 cell cycle arrest”.

And the “expression of BAD and p27Kip1” value (MDA-MB-231 cells [8]; [11])?
The value was “increased expression”.

And the “levels of MAPK and cyclin A” value (MDA-MB-231 cells [8]; [11])?
Its value is “decreased the levels of MAPK and cyclin A”.

And the “phosphorylation of p38” value (MDA-MB-231 cells [8]; over time)?
The value was “significantly increased the phosphorylation”.

And the Cellular incorporation (MDA-MB-231 cells [3]; 15 min)?
The Cellular incorporation was 5 pmol/10^6 cells.

What about the Cellular incorporation (MDA-MB-231 cells [3]; 4 h) of the same molecule?
The Cellular incorporation was 14 pmol/10^6 cells.

What about the logD ([9]; pH 7.4, Distribution coefficient log D, n-octanol/PBS (pH 7.4), shake flask, RP-HPLC quantification) of the same molecule?
Its logD is -3.02.

Which IC50 (MDA-MB-231 cells [1]; 72 h) does the source give for `NC(N)=NCCC[C@@H](N)C(=O)N[C@@H](CCCN=C(N)N)C(=O)N1CCC[C@H]1C(=O)N1C[C@H](O)C[C@H]1C(=O)NCC(=O)N[C@@H](Cc1cccs1)C(=O)N[C@@H](CO)C(=O)N1Cc2ccccc2C[C@@H]1C(=O)N1[C@H](C(=O)N[C@@H](CCCN=C(N)N)C(=O)O)C[C@@H]2CCCC[C@@H]21` [HOE 140] here?
Its IC50 is > 100 µM.

What about the Cellular incorporation (MDA-MB-231 cells [3]; 15 min) of the same molecule?
Its Cellular incorporation is 0 pmol/10^6 cells.

And the Cellular incorporation (MDA-MB-231 cells [3]; 4 h)?
The Cellular incorporation was 0 pmol/10^6 cells.

And the Cellular incorporation (MDA-MB-231 cells [3]; 24 h)?
The Cellular incorporation was 0 pmol/10^6 cells.

And the logD ([9]; pH 7.4)?
Its logD is -3.06.

With `CC(=O)O[C@H]1C(=O)[C@@]2(C)[C@H]([C@H](OC(=O)c3ccccc3)[C@]3(O)C[C@H](OC(=O)[C@H](O)[C@@H](NC(=O)c4ccccc4)c4ccccc4)C(C)=C1C3(C)C)[C@]1(OC(C)=O)CO[C@@H]1C[C@@H]2O` [Paclitaxel (Taxol), Paclitaxel] as the molecule, how does the IC50 (MDA-MB-231 cells [1]; [10]) read?
The IC50 was 10 ± 1 µM.

With `C[S+]([O-])c1ccc(-c2nc(-c3ccncc3)c(-c3ccc(F)cc3)[nH]2)cc1` (stereo not drawn) [SB203580] as the molecule, how does the “clonogenicity, inhibitor alone” value (MDA-MB-231 cells [2]; 10 µM, 14 days) read?
The value was “had no effect”.

What does the source list for `Cn1nnc2c(C(N)=O)ncn2c1=O` [Temozolomide (Temodar), Temozolomide]?
IC50 (MDA-MB-231 cells [1]; [10]): > 100 µM; cytotoxic effect (MDA-MB-231 cells [1]): did not show significant cytotoxic effect

Which “intrinsic activity of vector alone” value (MDA-MB-231 cells [6]; up to 100 μM, in any of the above assays) does the source give for “DTat: vector alone; modified HIV-1 Tat peptide sequence GRKKRRQRRR in D-configuration (G[dR][dK][dK][dR][dR][dQ][dR][dR][dR])” here?
The value was “did not exhibit intrinsic activity”.
